Consider 16 compounds from patent publication US6335333B1, “N-arylsulfonylamino acid omega-amides” (Aventis Pharma Deutschland GmbH, priority 1998, dated 2002).

For data set [1], the target named is T1, human stromelysin (MMP-3) (Homo sapiens, UniProt P08254).
T1 construct: enzymatic activity of the catalytic domain of human stromelysin; made in house
The data set can be described thus: Inhibition of enzymatic activity of catalytic domain of stromelysin (fluorogenic substrate). The data set is classed as biochemical. The settings on record: pH 6.5, 15 min preincubation. Here is the method:
(§1) Preparation and determination of the enzymatic activity of the catalytic domain of human stromelysin and of neutrophil collagenase.
(§2) The two enzymes—stromelysin (MMP-3) and neutrophil collagenase (MMP-8)—were prepared according to Ye et al. (Biochemistry; 31 (1992) pages 11231-11235) or Weithmann et al. (Inflamm Res 46(1997) 246-252). For measurement of the inhibitory action on the enzymatic activity, 70 μl of buffer solution and 10 μl of enzyme solution were incubated for 15 minutes with 10 μl of a 10% strength (v/v) aqueous dimethyl sulfoxide solution which optionally contained the enzyme inhibitor. After addition of 10 μl of a 10% strength (v/v) aqueous dimethyl sulfoxide solution which contained 1 mmol/l of the substrate, the enzyme reaction was monitored by fluorescence spectroscopy (328 nm (ex)/393 nm (em)). The enzyme activity was shown as the extinction increase/minute. The IC50 values listed in Table 2 were determined as those inhibitor concentrations which in each case led to a 50% inhibition of the enzyme. The buffer solution contained 0.05% of Brij (Sigma, Deisenhofen, Germany) and 0.1 mol/l of piperazine-N,N′-bis[2-ethanesulfonic acid]/NaOH, 0.1 mol/l of NaCl, 0.01 mol/l of CaCl2 and 0.1 mol/l of piperazine-N,N′-bis[2-ethanesulfonic acid] (pH=6.5). The enzyme solution contained 5 μg/ml of one of the enzyme domains prepared according to Ye et al. The substrate solution contained 1 mmol/l of the fluorogenic substrate (7-methoxycoumarin-4-yl)acetyl-Pro-Leu-Gly-Leu-3-(2′,4′-dinitrophenyl)-L-2,3-diaminopropionyl-Ala-Arg-NH2 (Bachem, Heidelberg, Germany).

Data set [2] is described as follows: Determination of the solubility in water (HPLC against external standard). The format is physicochemical. Here is the method:
Determination of the solubility in water of the free acid of 2-(4′-chloro-biphenyl-4-sulfonylamino)-5-(5-fluoro-2,3-dihydroindol-1-yl)-5-oxopentanoic acid according to Example 8 and its tromethamine salt according to Example 15
Approximately 50 mg of test substance according to 1.1a) were initially introduced into a 100 ml Erlenmeyer flask. After addition of 10 ml of water, the mixture was stirred at 25° C. After 2 hours (h) and after 3 h, aliquots were taken and centrifuged. 1 ml each of the supernatant was diluted to 10 ml with mobile phase. The concentration of the active component was determined by means of HPLC against an external standard. Repetition of the experiment.
Approximately 800 mg of the tromethamine salt according to 1.1b) were initially introduced into a 100 ml Erlenmeyer flask. After addition of 10 ml of water, the mixture was stirred at 25° C. After 2 h and after 3 h, aliquots were taken and centrifuged. 1 ml each of the supernatant was diluted to 100 ml with mobile phase. The concentration of the active component was determined by means of HPLC against an external standard. Repetition of the experiment.

Data set [3] addresses T2, neutrophil collagenase (MMP-8) (Homo sapiens, UniProt P22894).
T2 construct: catalytic domain of human stromelysin and of neutrophil collagenase; made in house
Kind of data set: Inhibition of enzymatic activity of catalytic domain of neutrophil collagenase (fluorogenic substrate). The data set is classed as biochemical. The settings on record: pH 6.5, 15 min preincubation. Here is the method: as §1, §2

Each structure is given as a SMILES string. pIC50: −log10 of the molar value. Values after ≈ are worked out from the molar mass of the structure shown. Counter-ions that a name gives are not always drawn. Like-named read-outs stand apart in the source and are kept apart here.

The term pIC50 denotes the IC50 on a negative log10 scale, so that one unit is a factor of ten. Lower therefore signals a large IC50. Broadly, the solubility is how much of the substance goes into solution per volume.

T2 sequence (P22894 100-262 limits assumed): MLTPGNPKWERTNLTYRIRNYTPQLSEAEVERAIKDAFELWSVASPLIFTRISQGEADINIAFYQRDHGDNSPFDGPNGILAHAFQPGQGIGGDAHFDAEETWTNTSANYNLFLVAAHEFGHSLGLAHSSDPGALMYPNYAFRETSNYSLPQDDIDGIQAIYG
T1 sequence (P08254 100-272 limits assumed): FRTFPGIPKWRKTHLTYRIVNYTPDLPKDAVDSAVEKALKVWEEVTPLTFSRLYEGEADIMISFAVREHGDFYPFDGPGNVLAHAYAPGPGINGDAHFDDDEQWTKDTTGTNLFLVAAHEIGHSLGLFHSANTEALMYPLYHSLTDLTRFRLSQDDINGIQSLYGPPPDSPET

Turning to `O=C(O)[C@H](CCC(=O)N1CCc2ccccc21)NS(=O)(=O)c1ccc(-c2ccc(Br)cc2)cc1` [Example 9, 2-(4′-bromobiphenyl-4-sulfonyl-amino)-5-(2,3-dihydroindol-1-yl)-5-oxopentanoic acid], the pIC50 in data set [1] was 7.00. Consider `O=C(CC[C@H](NS(=O)(=O)c1ccc(-c2ccccc2)cc1)C(=O)O)NCCNc1ccccc1` [Example 3, 2-(biphenyl-4-sulfonylamino)-4-(2-phenylamino-ethylcarbamoyl)butyric acid], for which, in data set [1], the pIC50 is 6.70.

Compound `O=C(CC[C@H](NS(=O)(=O)c1ccc(-c2ccc(Cl)cc2)cc1)C(=O)O)NCCCN1CCOCC1` [Example 4, 2-(4′-chloro-biphenyl-4-sulfonylamino)-4-(3-morpholin-4-ylpropylcarbamoyl)butyric acid] showed a pIC50 in data set [1] of 7.00. In turn, `O=C(O)[C@H](CCC(=O)N1CCc2cc(F)ccc21)NS(=O)(=O)c1ccc(-c2ccc(Cl)cc2)cc1` [Example 10, 2-(4′-chloro-biphenyl-4-sulfonylamino)-5-(5-fluoro-2,3-dihydroindol-1-yl)-5-oxopentanoic acid] showed a pIC50 in data set [1] of 7.00. As for `O=C(O)[C@H](CCC(=O)N1CCc2ccccc21)NS(=O)(=O)c1ccc(-c2ccc(Cl)cc2)cc1` (stereo in doubt) [Example 8, 2-(4′-Chlorobiphenyl-4-sulfonylamino)-5-(2,3-dihydroindol-1-yl)-5-oxopentanoic acid], the solubility at 2 h in data set [2] (thermodynamic from solid, water, 25° C., stirred 2 h, mean value from two determinations, read-out: Solubility in water at 25° C. after 2 h) came to 200 µg/mL (≈ 401 µM). Also, in data set [2] (thermodynamic from solid, water, 25° C., stirred 3 h, mean value from two determinations, read-out: Solubility in water at 25° C. After 3 h), the solubility at 3 h was found to be 100 µg/mL (≈ 200 µM). For the same compound, the “Solubility in water at 25° C. Result” value in data set [2] (water, 25° C., data value obtained after 3 h is used) is 100 µg/mL (≈ 200 µM). In data set [1], `O=C(O)[C@H](CCC(=O)N1CCc2ccccc21)NS(=O)(=O)c1ccc(-c2ccccc2)cc1` [Example 6, 2-(Biphenyl-4-sulfonylamino)-5-(2,3-dihydroindol-1-yl)-5-oxopentanecarboxylic acid] gave a pIC50 of 6.30. As for `O=C(O)[C@H](CCC(=O)N1CCc2cc(F)ccc21)NS(=O)(=O)c1ccc(-c2ccc(N3CCOCC3)cc2)cc1` [Example 13, 5-(5-fluoro-2,3-dihydroindol-1-yl)-2-(4′-morpholin-4-yl-biphenyl-4-sulfonylamino)-5-oxopentanoic acid], the pIC50 in data set [1] is 7.00; in data set [3], 8.00. On to `NC(CO)(CO)CO.O=C(O)C(CCC(=O)N1CCc2ccccc21)NS(=O)(=O)c1ccc(-c2ccc(Cl)cc2)cc1` (stereo not shown) [Example 15, Tromethamine salt of 2-(4′-chlorobiphenyl-4-sulfonylamino)-5-(2,3-dihydroindol-1-yl)-5-oxopentanoic acid], for which, in data set [2], the “Solubility in water at 25° C. After 3 h” value stood at 58000 µg/mL; the “Solubility in water at 25° C. Result” value stood at 58000 µg/mL; the “Solubility in water at 25° C. after 2 h” value turned out to be 58000 µg/mL; the “Water solubility of tromethamine salt higher than that of the free acid, factor” value was about 600. Take `O=C(O)[C@H](CCC(=O)N1CCc2cc(F)ccc21)NS(=O)(=O)c1ccc(-c2ccc(N3CCCC3)cc2)cc1` [Example 12, 5-(5-Fluoro-2,3-dihydroindol-1-yl)-5-oxo-2-(4′-pyrrolidin-1-ylbiphenyl-4-sulfonylamino)pentanoic acid]: the pIC50 in data set [1] was 7.52; in data set [3], 8.70. For `O=C(CC[C@H](NS(=O)(=O)c1ccc(-c2ccccc2)cc1)C(=O)O)NCCCN1CCOCC1` [Example 5, 4-(3-(4-(Biphenyl-4-sulfonylamino)-4-carboxybutyrylamino)-propyl)morpholin-4-ium trifluoroacetate] the same measures were 7.00 and 8.22. For `O=C(O)[C@H](CCC(=O)N1CCc2ccccc21)NS(=O)(=O)c1ccc(-c2ccc(N3CCCC3)cc2)cc1` [Example 7, 5-(2,3-dihydroindol-1-yl)-5-oxo-2-(4′-pyrrolidin-1-yl-biphenyl-4-sulfonyl-amino)pentanoic acid], the pIC50 was 7.40 in data set [1] and 8.40 in data set [3]. Compound `O=C(CC[C@H](NS(=O)(=O)c1ccc(-c2ccccc2)cc1)C(=O)O)Nc1ccc2ccccc2c1` [Example 2, 2-(biphenyl-4-sulfonylamino)-4-(naphthalen-2-yl-carbamoyl)butyric acid] showed a pIC50 in data set [1] of 6.70. `O=C(O)[C@H](CCC(=O)N1CCc2cc(F)ccc21)NS(=O)(=O)c1ccc(-c2ccc(Br)cc2)cc1` [Example 11, 2-(4′-bromobiphenyl-4-sulfonylamino)-5-(5-fluoro-2,3-dihydroindol-1-yl)-5-ox-opentanoic acid] gave a pIC50 in data set [1] of 7.00. With `O=C(O)[C@H](CCC(=O)N1CCc2ccccc21)NS(=O)(=O)c1ccc(-c2ccc(Cl)cc2)cc1` [Example 8, 2-(4′-Chlorobiphenyl-4-sulfonylamino)-5-(2,3-dihydroindol-1-yl)-5-oxopentanoic acid], the results for the pIC50 in data set [1] and in data set [3] were 7.00 and 8.00, respectively. In the same order, the values of `O=C(CC[C@H](NS(=O)(=O)c1ccc(-c2ccccc2)cc1)C(=O)O)Nc1cccc2ccccc12` [Example 1, 2-(biphenyl-4-sulfonylamino)4-(naphthalen-1-ylcarb-amoyl)butyric acid] are 7.00 and 8.00.

`O=C(O)[C@@H](CCC(=O)N1CCc2ccccc21)NS(=O)(=O)c1ccc(-c2ccc(Cl)cc2)cc1` [Example 14]: the pIC50 was 7.30 in data set [1] and 8.00 in data set [3].
